From patent US20080050443A1, “Fast Release Composition Including Melt Granules of a Moisture Sensitive Drug and Process for Manufacturing Thereof” (priority 2004, published 2008)

Assay: Moisture sensitivity of Compound I
Format: physicochemical
Description: This monohydrochloride of formula (I) (hereinafter, “Compound I”) is described in scheme 2 of Villhauer et al., J Med Chem, Vol. 45, No. 12, pp. 2362-65 (2002), which is hereby incorporated by reference. Compound I is a moisture-sensitive therapeutic compound. At humidities above 75%, Compound I absorbs moisture and begins to deliquesce; moreover, Compound I undergoes both acidic and basic degradation with cyclic imidate (“CI”) being the major degradation product.

- humidity at which Compound I absorbs moisture and begins to deliquesce: above 75%
Compound: Cl.N#Cc1ccc(NCCNCC(=O)N2CCC[C@H]2C#N)nc1 [Compound I, [S]-1-[2-(5-cyano-2-pyridinylamino)ethylamino]acetyl-2-pyrolidine carbonitrile monohydrochloride]
